Measured values reported in EP0504290B1, “INHIBITORS OF PNEUMOCYSTIS CARINII DIHYDROFOLATE REDUCTASE” (CHIRON CORPORATION, priority 1989, dated 1991).
Where two headings read alike, the source gives them in different places.

Assays:
[1] = target: Pneumocystis carinii DHFR (Pneumocystis carinii, UniProt P16184); test: biochemical
recombinant human DHFR = target: T1, recombinant human DHFR (Homo sapiens, UniProt P00374); test: Inhibition of recombinant human DHFR activity by substituted phenyl triazines at 25 µM DHF; format: biochemical
T1 sequence (P00374 1-187): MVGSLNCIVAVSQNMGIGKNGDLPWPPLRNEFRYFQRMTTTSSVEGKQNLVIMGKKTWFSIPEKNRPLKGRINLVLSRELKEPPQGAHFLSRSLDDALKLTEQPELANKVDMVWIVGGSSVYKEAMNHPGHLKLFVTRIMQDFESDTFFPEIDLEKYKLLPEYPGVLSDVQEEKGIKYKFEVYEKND

P. carinii DHFR = P. carinii DHFR (Pneumocystis carinii, UniProt P16184); test: biochemical
[2] = ratio of human DHFR Ki to P. carinii DHFR Ki

Chain of P. carinii DHFR (P16184 whole entry): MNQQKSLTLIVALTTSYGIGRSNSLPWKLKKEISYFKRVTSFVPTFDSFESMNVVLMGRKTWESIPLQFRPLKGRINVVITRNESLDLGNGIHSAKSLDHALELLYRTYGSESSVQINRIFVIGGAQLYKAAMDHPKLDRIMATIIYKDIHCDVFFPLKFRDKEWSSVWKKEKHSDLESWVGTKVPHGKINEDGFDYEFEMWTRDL
Chain of Pneumocystis carinii DHFR (P16184 whole entry): as above

Structure (SMILES) | IC50 [1] [nM] | Selectivity, Ki (human)/Ki(Pc) [1, 2] | IC50 (recombinant human DHFR) [nM] | other results
CCCCCCCCCCCCCCOc1cccc(N2C(N)=NC(N)=NC2(C)C)c1 [3-O(CH2)13CH3] | 23600 | 2.3 | 31600 | –
CC1(C)N=C(N)N=C(N)N1c1ccc(O)cc1 [-OH] | – | – | – | IC50 (P. carinii DHFR): 250 µM; Ki (P. carinii DHFR): 875 nM
CC1(C)N=C(N)N=C(N)N1c1cccc(OCCOc2cccc(C(F)(F)F)c2)c1 [3-O(CH2)20ϕ, 3'CF3] | 1600 | – | – | –
CC1(C)N=C(N)N=C(N)N1c1ccc(Cl)cc1 [Substituent 4-Cl, 4,6-diamino-1-(p-chlorophenyl)1,2-dihydro-2,2-dimethyl-s-triazine, reference compound] | 7500 | – | – | Ki [1]: 109 nM; times more tightly bound to human DHFR than to P. carinii DHFR (recombinant human DHFR; human DHFR versus P. carinii DHFR): ~2.5 times; IC50 (P. carinii DHFR): 20 µM; Ki (P. carinii DHFR): 70 nM
Cc1cccc(OCc2cccc(N3C(N)=NC(N)=NC3(C)C)c2)c1 [3-CH20ϕ, 3'CH3] | 1400 | 0.8 | 650 | –
COc1cccc(OCc2cccc(N3C(N)=NC(N)=NC3(C)C)c2)c1 [3-CH2Oϕ, 3'OCH3] | 550 | 1.1 | 360 | –
COc1ccc(N2C(N)=NC(N)=NC2(C)C)cc1 [-OCH3] | – | – | – | IC50 (P. carinii DHFR): 90 µM; Ki (P. carinii DHFR): 315 nM
CC1(C)N=C(N)N=C(N)N1c1ccc(C(F)(F)F)cc1 [-CF3] | – | – | – | IC50 (P. carinii DHFR; 100 µM NADPH, 100 µM DHF, 1 nM P. carinii DHFR, 25 C, read-out: IC5O (100 µM DHF)): 25 µM; Ki (P. carinii DHFR; read-out: Ki): 87.5 nM
CC1(C)N=C(N)N=C(N)N1c1cccc(COc2cccc(Cl)c2)c1 [3-CH20ϕ, 3'Cl] | 850 | 0.9 | 470 | –
CCCCCCOc1cccc(N2C(N)=NC(N)=NC2(C)C)c1 [3-O(CH2)5CH3] | 1520 | 7.2 | 6400 | –
CCOc1cccc(N2C(N)=NC(N)=NC2(C)C)c1 [Substituent 3-OEt] | – | – | 13800 | –
CCCCCCCCCCCOc1cccc(N2C(N)=NC(N)=NC2(C)C)c1 [3-O(CH2)10CH3] | 1330 | 11.3 | 8800 | –
CCOC(=O)c1cccc(N2C(N)=NC(N)=NC2(C)C)c1 [Substituent 3-CO2Et] | 166000 | 1.2 | 114000 | –
CC1(C)N=C(N)N=C(N)N1c1cccc(COc2cccc(CO)c2)c1 [3-CH2Oϕ, 3'CH2OH] | 1800 | 0.9 | 970 | –
CC1(C)N=C(N)N=C(N)N1c1cccc(OCc2ccccc2)c1 [Substituent 3-OCH2ϕ] | 4600 | – | – | –
CC1(C)N=C(N)N=C(N)N1c1cccc(CNc2ccc(C#N)cc2)c1 [3-CH2NHϕ, 4'CN] | 600 | 1.5 | 520 | –
CC(=O)c1cccc(N2C(N)=NC(N)=NC2(C)C)c1 [Substituent 3-COCH3] | – | – | 21000 | –
CC1(C)N=C(N)N=C(N)N1c1cccc(COc2cccc3ccccc23)c1 [3-CH20(a)Naphthyl] | 360 | – | 560 | Selectivity, Ki (human)/Ki(Pc) [1]: 2.6
CC1(C)N=C(N)N=C(N)N1c1ccc([N+](=O)[O-])cc1 [-NO2] | – | – | – | IC50 (P. carinii DHFR): > 8330 µM; Ki (P. carinii DHFR): > 2900 nM
CC(=O)Nc1cccc(OCc2cccc(N3C(N)=NC(N)=NC3(C)C)c2)c1 [3-CH2Oϕ, 3'NHAc] | 230 | – | – | –
CC1(C)N=C(N)N=C(N)N1c1cccc(CNc2cc(C(N)=O)cc(C(N)=O)c2)c1 [3-CH2NHϕ, 3',5'(CONH2)2] | 1070 | – | 2800 | Selectivity, Ki (human)/Ki(Pc) [1]: 4.5
CC1(C)N=C(N)N=C(N)N1c1cccc([N+](=O)[O-])c1 [Substituent 3-NO2] | 9500 | 0.7 | 2760 | –
CC1(C)N=C(N)N=C(N)N1c1cccc(COc2ccc(Cl)c(Cl)c2Cl)c1 [3-CH2Oϕ, 2',3',4'Cl3] | 560 | 2.5 | 810 | –
Cc1ccc(N2C(N)=NC(N)=NC2(C)C)cc1 [-CH3] | – | – | – | IC50 (P. carinii DHFR): 30 µM; Ki (P. carinii DHFR): 105 nM
